PMC9501899 (Journal of the American Chemical Society, 2022)

Key:
VHL-NanoLuc = target: T1, VHL-NanoLuc (Homo sapiens, UniProt P40337); experiment: NanoBRET VHL target engagement assay in HEK293 cells; type: binding
T1 construct: host or cells: HEK293
Experimental: Figure 9 Binding affinities to VHL and LRRK2. (A) Binding affinity of the tested compounds to VHL using the FP assay. […] NanoBRET target engagement assays of tested compounds to VHL (B) and LRRK2 (C) in permeabilized and live-cell modes. The indicated compounds were titrated into HEK293 cells transfected with VHL-NanoLuc (B) or LRRK2-NanoLuc fusion (C) in the presence of VHL tracer (B) or LRRK2 tracer (C). 0.25 and 0.5 μM VHL tracers were used for the permeabilized and live mode VHL engagement assays separately. 0.125 and 0.5 μM of LRRK2 tracer were used for the permeabilized and live mode LRRK2 engagement assays separately. […]
For VHL and LRRK2 target engagement experiments in live and permeabilized cells, the HEK293 cells were transfected with the VHL-NanoLuc fusion vector (Promega, N275A) or LRRK2-NanoLuc fusion vector (Promega, NV3401) following Promega’s protocol and seeded into a white 384-well plate (Corning3570) at a density of 6000 cells/well. […] The filtered luminescence was measured within 10 min following the addition of the substrate on a GloMax Discover microplate reader (Promega) or a PHERAstar (BMG LABTECH) plate reader equipped with a 450 nm bandpass filter (donor) and a 600 nm long-pass filter (acceptor). […]

Rab10-pThr73 = experiment: Rab10 dephosphorylation in G2019S LRRK2 MEFs by Western blotting; type: cell-based, mouse; settings: 0.3 µM
LRRK2 = target: T2, LRRK2 (Mus musculus, UniProt Q5S006); experiment: LRRK2 degradation in bone marrow-derived macrophages (BMDMs); type: cell-based; settings: 4 h
T2 construct: endogenous in cells; host or cells: mouse bone marrow-derived macrophages
T2 sequence (Q5S006 whole entry): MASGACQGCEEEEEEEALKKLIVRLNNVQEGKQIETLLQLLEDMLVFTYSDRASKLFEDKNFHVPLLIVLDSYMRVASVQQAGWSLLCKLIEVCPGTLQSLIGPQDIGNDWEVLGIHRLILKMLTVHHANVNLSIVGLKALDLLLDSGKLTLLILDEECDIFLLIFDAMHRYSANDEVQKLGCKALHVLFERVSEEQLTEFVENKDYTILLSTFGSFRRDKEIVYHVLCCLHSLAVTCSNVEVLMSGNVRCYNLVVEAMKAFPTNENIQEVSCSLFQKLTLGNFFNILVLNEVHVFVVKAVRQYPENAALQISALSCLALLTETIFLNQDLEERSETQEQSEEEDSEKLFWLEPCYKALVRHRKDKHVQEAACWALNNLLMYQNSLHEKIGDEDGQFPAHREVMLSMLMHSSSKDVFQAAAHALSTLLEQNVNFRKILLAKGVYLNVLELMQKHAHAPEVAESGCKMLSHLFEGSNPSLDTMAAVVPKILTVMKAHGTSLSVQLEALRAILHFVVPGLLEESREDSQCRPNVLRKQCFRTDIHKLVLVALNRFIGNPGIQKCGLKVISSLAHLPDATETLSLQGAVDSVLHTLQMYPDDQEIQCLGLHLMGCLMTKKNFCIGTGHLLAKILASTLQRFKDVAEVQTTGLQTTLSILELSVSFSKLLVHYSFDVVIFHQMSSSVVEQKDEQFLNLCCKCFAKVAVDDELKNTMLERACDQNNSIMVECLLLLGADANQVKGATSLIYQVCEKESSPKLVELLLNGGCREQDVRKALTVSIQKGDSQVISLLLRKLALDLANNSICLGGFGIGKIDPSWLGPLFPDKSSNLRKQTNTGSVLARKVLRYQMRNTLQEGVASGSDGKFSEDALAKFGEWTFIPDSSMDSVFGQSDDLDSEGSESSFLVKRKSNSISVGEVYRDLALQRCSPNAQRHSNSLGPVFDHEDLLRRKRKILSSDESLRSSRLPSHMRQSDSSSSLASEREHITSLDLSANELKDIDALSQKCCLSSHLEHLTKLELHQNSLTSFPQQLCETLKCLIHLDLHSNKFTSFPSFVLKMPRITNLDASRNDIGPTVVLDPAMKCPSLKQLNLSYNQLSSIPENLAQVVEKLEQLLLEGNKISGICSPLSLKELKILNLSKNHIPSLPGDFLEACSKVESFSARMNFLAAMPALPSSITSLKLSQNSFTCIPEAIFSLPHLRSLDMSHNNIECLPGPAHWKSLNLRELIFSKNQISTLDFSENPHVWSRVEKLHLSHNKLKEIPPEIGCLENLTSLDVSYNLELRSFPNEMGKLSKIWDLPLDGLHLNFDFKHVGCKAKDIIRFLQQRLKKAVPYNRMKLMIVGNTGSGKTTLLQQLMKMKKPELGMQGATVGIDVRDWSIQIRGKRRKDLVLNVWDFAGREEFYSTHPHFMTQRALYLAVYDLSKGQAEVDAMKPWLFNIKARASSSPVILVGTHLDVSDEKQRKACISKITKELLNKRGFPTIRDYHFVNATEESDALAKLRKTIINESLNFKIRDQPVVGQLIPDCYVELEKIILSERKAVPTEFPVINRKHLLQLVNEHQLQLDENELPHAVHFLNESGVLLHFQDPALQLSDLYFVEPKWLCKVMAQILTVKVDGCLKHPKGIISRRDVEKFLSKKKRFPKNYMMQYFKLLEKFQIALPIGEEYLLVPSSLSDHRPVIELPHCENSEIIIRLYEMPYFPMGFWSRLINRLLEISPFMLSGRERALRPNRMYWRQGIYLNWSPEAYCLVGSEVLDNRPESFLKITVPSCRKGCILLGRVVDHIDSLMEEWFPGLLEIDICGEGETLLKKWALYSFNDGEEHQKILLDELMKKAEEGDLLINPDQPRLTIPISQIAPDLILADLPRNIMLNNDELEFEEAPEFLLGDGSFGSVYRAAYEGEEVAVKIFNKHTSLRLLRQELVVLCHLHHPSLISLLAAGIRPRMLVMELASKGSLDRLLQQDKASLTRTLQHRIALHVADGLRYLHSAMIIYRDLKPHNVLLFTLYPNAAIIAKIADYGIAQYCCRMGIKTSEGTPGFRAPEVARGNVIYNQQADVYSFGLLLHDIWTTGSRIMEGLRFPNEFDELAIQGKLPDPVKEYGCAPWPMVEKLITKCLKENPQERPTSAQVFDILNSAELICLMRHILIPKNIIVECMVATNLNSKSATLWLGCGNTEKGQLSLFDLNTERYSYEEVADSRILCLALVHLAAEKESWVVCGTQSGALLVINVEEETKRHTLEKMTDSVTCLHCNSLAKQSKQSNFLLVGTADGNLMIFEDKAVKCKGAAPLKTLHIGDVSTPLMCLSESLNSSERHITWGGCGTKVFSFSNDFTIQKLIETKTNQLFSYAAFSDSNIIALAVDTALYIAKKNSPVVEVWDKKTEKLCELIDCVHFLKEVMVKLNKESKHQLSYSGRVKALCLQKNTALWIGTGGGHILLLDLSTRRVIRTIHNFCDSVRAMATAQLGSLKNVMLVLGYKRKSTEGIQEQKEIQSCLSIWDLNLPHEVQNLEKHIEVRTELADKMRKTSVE
Excerpt: The relative LRRK2 protein and pRab10 levels were obtained by quantifying the ratios of total LRRK2/GAPDH or Rab10-pThr73/total Rab10, respectively, and the ratios were normalized to the DMSO-treated samples. The relative LRRK2 and pRab10 protein levels were plotted against the compound concentration and fitted against “nonlinear regression, one site-fit log IC50” in GraphPad to obtain the DC50 and EC50 values. Data points are presented as mean ± standard error of the mean (SEM) from three biological independent replicates. […] The relative LRRK2 protein and pRab10 levels were obtained by quantifying the ratios of total LRRK2/ GAPDH or Rab10-pThr73/total Rab10, respectively, and the ratios were normalized to the DMSO-treated samples. The relative LRRK2 and pRab10 protein levels were plotted against the treatment time and were fitted against “nonlinear regression, one-phase decay” in GraphPad to obtain the half-life (T1/2) values. Data points are presented as mean ± SEM from three biological independent replicates. […] The relative LRRK2 levels were obtained by quantifying the ratios of total LRRK2/tubulin and normalized to the DMSO-treated samples. The relative LRRK2 levels were plotted against the compound concentration and fitted against “nonlinear regression, one site-fit log IC50” in GraphPad to obtain the DC50 values.
Bone marrow isolation and macrophage differentiation were modified from ref ([81]), employing an L929 preconditioned medium as the source of M-CSF for differentiation. Briefly, scissors and forceps were used to dissect femurs and tibiae from adult mice, and muscle tissues were carefully removed from bones. Clean femurs and tibiae were placed in a tissue culture dish containing complete media. The ends of each bone were cut with scissors to expose the bone marrow. […] The cell suspension was counted, and cells were seeded for experimental analysis in a six-well format in tissue culture-treated dishes at a final cell density of one million cells per well of a six-well plate. […]

T1 sequence (P40337 whole entry): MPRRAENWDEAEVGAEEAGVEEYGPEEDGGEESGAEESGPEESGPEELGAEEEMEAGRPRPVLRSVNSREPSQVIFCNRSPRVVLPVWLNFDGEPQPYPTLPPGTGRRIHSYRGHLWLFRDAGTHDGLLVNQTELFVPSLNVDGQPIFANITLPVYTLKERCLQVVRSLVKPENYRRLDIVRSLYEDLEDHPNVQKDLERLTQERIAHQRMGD

CNc1nc(Nc2ccc(C(=O)N3CCN(CCOCCOCCSC(C)(C)[C@H](NC(=O)C4(F)CC4)C(=O)N4C[C@H](O)C[C@H]4C(=O)NCc4ccc(-c5scnc5C)cc4)CC3)cc2OC)ncc1Cl [SD75]
VHL IC50 Permeabilized/IC50 Live (VHL-NanoLuc; ratio used to compare permeabilities): 0.76

CNc1nc(Nc2ccc(C(=O)N3CCN(C[C@H]4CC[C@H](CSC(C)(C)[C@H](NC(=O)C5(F)CC5)C(=O)N5C[C@H](O)CC5C(=O)NCc5ccc(-c6scnc6C)cc5)CC4)CC3)cc2OC)ncc1Cl (stereo partly drawn) [XL01126, (2S,4R)-1-((R)-3-((((1R,4R)-4-((4-(4-((5-Chloro-4-(methylamino)pyrimidin-2-yl)amino)-3-methoxybenzoyl)piperazin-1-yl)methyl)cyclohexyl)methyl)thio)-2-(1-fluorocyclopropane-1-carboxamido)-3-methylbutanoyl)-4-hydroxy-N-(4-(4-methylthiazol-5-yl)benzyl)pyrrolidine-2-carboxamide]
GS-pRab10 percent label at the end of the time curve (Rab10-pThr73): 92%
IC50 (VHL-NanoLuc; permeabilized HEK293 cells): > 10 µM
Dmax (LRRK2; BMDM): 83%

CNc1nc(Nc2ccc(C(=O)N3CCN(C[C@H]4CC[C@@H](CSC(C)(C)[C@H](NC(=O)C5(F)CC5)C(=O)N5C[C@H](O)CC5C(=O)NCc5ccc(-c6scnc6C)cc5)CC4)CC3)cc2OC)ncc1Cl (stereo partly shown) [XL01134]
GS-pRab10 percent label at the end of the time curve (Rab10-pThr73): 87%

CNc1nc(Nc2ccc(C(=O)N3CCN(C[C@H]4CC[C@H](CSC(C)(C)[C@H](NC(=O)C5(F)CC5)C(=O)N5C[C@@H](O)C[C@H]5C(=O)NCc5ccc(-c6scnc6C)cc5)CC4)CC3)cc2OC)ncc1Cl [cis-XL01126, (2S,4S)-1-((R)-3-((((1R,4R)-4-((4-(4-((5-Chloro-4-(methylamino)pyrimidin-2-yl)amino)-3-methoxybenzoyl)piperazin-1-yl)methyl)cyclohexyl)methyl)thio)-2-(1-fluorocyclopropane-1-carboxamido)-3-methylbutanoyl)-4-hydroxy-N-(4-(4-methylthiazol-5-yl)benzyl)pyrrolidine-2-carboxamide]
DC50s (LRRK2) (LRRK2): NDO
Dmax (LRRK2) (LRRK2): NDO
